Experimental data: publication PMC8708491 (Vaccines, 2021)
Where no end group is shown, it is not given here.

How the values were obtained:
adenocarcinoma patients = details: cited from earlier work
Description: We have shown that mannan, a poly-mannose carbohydrate isolated from the cell wall of yeast when conjugated to cancer proteins, induces Th1 or Th2 immune responses depending on the mode of conjugation and has therapeutic benefits against cancer when conjugated to peptides, proteins, and DNA. […] In addition, mannan has the added advantage, as it stimulates dendritic cells via Toll-like receptor 4. In MS, mannan conjugated to linear o ...

endo-proteinase Glu-C V8 = endo-proteinase Glu-C V8 (Staphylococcus aureus, UniProt P0C1U8); details: 100 mM Tris-HCl pH 7.8 (carbonate buffer in Figure 6); 0.5 mg/mL; read-out HPLC (fragment MOG37–55 at 13.55 min), MS and UPLC-MS/MS
Chain of endo-proteinase Glu-C V8 (P0C1U8 69-336): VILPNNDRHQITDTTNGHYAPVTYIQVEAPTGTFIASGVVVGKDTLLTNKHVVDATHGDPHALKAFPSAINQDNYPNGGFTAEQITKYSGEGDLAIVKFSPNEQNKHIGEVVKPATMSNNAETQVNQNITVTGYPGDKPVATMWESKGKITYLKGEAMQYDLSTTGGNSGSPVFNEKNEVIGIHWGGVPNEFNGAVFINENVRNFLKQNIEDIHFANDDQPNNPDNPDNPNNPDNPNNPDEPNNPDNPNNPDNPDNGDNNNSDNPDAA
Procedure: This cleavage experiment aimed to identify fragment MOG37–55 by HPLC analysis. […] In particular, endo-proteinase Glu-C V8, a proteolytic serine, sequencing grade from Staphylococcus aureus V8, (Roche, lot no. 32228800) was used. This enzyme acts at the carboxylic acid of the Glu amino acid. […] The same experiment of enzymatic hydrolysis with a glutamate enzyme was also carried out with oxidized mannan–(KG)5-MOG35–55 conjugate.

[1] = Polarity by reversed-phase HPLC retention; type: physicochemical; details: chromatographic, RP-18 (C18) column, gradient 5–100% AcN in 30 min, 0.08% TFA, 214 nm
Procedure: Figure 8 HPLC analysis of peptide (KG)5-MOG35–55 (214 nm) and oxidized mannan–(KG)5-MOG35–55. HPLC analysis of (A) (KG)5-MOG35–55 and (B) oxidized mannan–(KG)5-MOG35–55 solution after 3 years (214 nm) showing the stability of the conjugate. […] The oxidized mannan–(KG)5-MOG35–55 conjugate was very polar, and it appeared at an earlier retention time compared to the less polar (KG)5-MOG35–55 peptide. The HPLC method used: gradient 5–100% AcN in 30 min.

CD4 T cells = details: cited from earlier work
Description: The induction of immunological tolerance through the action of dendritic cells is a newly introduced strategy for the treatment of MS. Peripheral blood mononuclear cells (PBMCs) were isolated from patients with relapsing-remitting (RR-MS) and age- and sex-matched healthy individuals (controls).

[2] = system: experimental autoimmune encephalomyelitis (EAE); details: cited from earlier work
Description: Several biological studies, including in vitro and in vivo assays, have been carried out to evaluate the effects of mannan–myelin peptide conjugates. […] In another study, mannan–MOG35–55 reversed experimental autoimmune encephalomyelitis, inducing a pe ...

[3] = old lab batches kept at 5 ± 3 °C since 2014; HPLC (data not shown)
Procedure: We used a Waters 2695 HPLC (Alliance) system using a photodiode array detector. A Lichrosorb RP-18 reversed-phase analytical column (C18 […], 4.6 × 50 mm PIN 186003034). […] The reaction of oxidized mannan with a (KG)5-MOG35–55 peptide was monitored by HPLC. […] The samples were kept for 3 years and assessed by HPLC for stability.
The stability of the oxidized mannan–(KG)5-MOG35–55 conjugate was analyzed after 3 years of storage.

[4] = system: patients with secondary progressive MS; details: cited from earlier work
Procedure: The study was performed for the first time using a peptide epitope on patients with secondary progressive MS (MAESTRO-01 study).

[5] = system: endo-proteinase Glu-C V8, sequencing grade from Staphylococcus aureus V8; experiment: endo-proteinase Glu-C V8 in 100 mM Tris-HCL, pH 7.8
[6] = another study, wording is the title of ref 20
[7] = compared to EAE controls, 19 (wording matches ref 30)

Substance: mannan conjugated to MUC1 protein: mannan conjugated to MUC1 cancer protein, tested in humans
- Clinical responses (adenocarcinoma patients; adenocarcinoma patients): clinical responses
- Cancer recurrence (adenocarcinoma patients; in humans): protection against cancer recurrence
- Immune responses (adenocarcinoma patients; in humans): induces immune responses

Substance: (KG)5-MOG35–55: peptide MOG35–55 synthesized with (KG)5 at its N-terminus (MEVGWYRSPFSRVVHLYRNGK; N-terminal (KG)5 linker; UniProt Q61885 63-83, looked up, fragment)
- Cleavage by endo-proteinase Glu-C (endo-proteinase Glu-C V8): cleavage of the peptide
- Polarity from HPLC retention time [1]: less polar

Substance: oxidized mannan–(KG)5-MOG35–55: MOG35–55 peptide conjugated to oxidized mannan via the (KG)5 linker at its N-terminus (KGKGKGKGKGMEVGWYRSPFSRVVHLYRNGK; also: conjugated to oxidized mannan via Schiff base on linker lysine side chains; UniProt Q61885 63-83, looked up, fragment)
- Cleavage by endo-proteinase Glu-C (endo-proteinase Glu-C V8): cleavage of peptide sequence between amino acids Glu(36) and Val(37)
- Activation levels of CD4 T cells (CD4 T cells; co-cultures with tolerogenic DCs presenting the conjugate, PBMCs from RR-MS patients and healthy controls): Inhibition of activation
- T-cell tolerance (CD4 T cells; tolerogenic DCs loaded with the conjugate, generated in vitro): induce T-cell tolerance
- Polarity from HPLC retention time [1]: very polar
- Development of neurological symptoms and inflammatory demyelinating spinal cord lesions ([2]; EAE models, peptide conjugated to oxidized mannan via (KG)5, earlier study, no reference given): inhibit
- Axons in spinal cord lesions [2, 6]: preserved
- CNS inflammation [2, 6]: reduced
- Effect on experimental autoimmune encephalomyelitis [2, 6]: reversed
- Peripheral myeloid response [2, 6]: inducing a peripheral type 2 myeloid response
- Antigen-specific T-cell proliferation [2, 7]: reduced
- Th1, Th17, and regulatory T-cell differentiation or T-cell apoptosis [2, 7]: no alterations
- Protection in EAE ([2]; therapeutic and prophylactic models, 19 (no reference at the sentence; wording matches ref 30)): showed protection
- Stability of the conjugate: fragmentation or detachment [3]: did not show any signs of fragmentation or detachment

Substance: MBP82–98: myelin basic protein epitope peptide clinically tested in phases I, II and III (PADPGSRPHLIRLFSRD; dirucotide; UniProt P02686 82-98, looked up, fragment)
- Safety in clinical trials ([4]; phases I, II and III): safe
- Efficacy in clinical trial ([4]; secondary progressive MS, MAESTRO-01 study, trial suspended): lack of efficacy

Substance: KGKGKGKGKGMEVGWYRPPFSRVVHLYRNGK
- cleaved bond [5]: Glu36-Val37
